In article PMC2792609, “Effect of methomyl on hepatic mixed function oxidases in rats” (Indian Journal of Pharmacology, 2008):

Test system: alanine aminotransferase (SGPT)
Assay: Serum alanine aminotransferase (SGPT) activity
Type: in vivo, rat
Settings: for Increased activity of alanine aminotransferase: 3 days
Procedure: Adult male rats (weighing 200-230 g) were divided into four groups of six animals each. Group 1 received an equivalent amount of saline and served as control. Animals from group 2, 3, and 4 were given methomyl 1, 2, and 4 mg/kg body weight i.p. respectively, between 8: 00 a.m. and 9:00 a.m., for three consecutive days. In the second set of experiments, adult male rats were divided into four groups. Animals from group 2, 3, and 4 were injected with 4 mg/kg body weight methomyl for one, three, and five successive days. The volume injected into the rats of body weight 200 g was 1 ml. […]
Alanine aminotransferase and aspartate aminotransferase activity was measured using the Reitman and Frankel[12] method. Alkaline phosphatase activity was measured using Span diagnostic kits.[13] Cholinesterase activity was measured using the kinetic test method of Knedel et al.[14]

CNC(=O)ON=C(C)SC [methomyl, S-methyl-N-(methyl carbomyl)-thioacetimidate]
SGPT (female rats, 4 mg/kg body weight i.p., for 3 days): 50.0 u/l
Increased activity of alanine aminotransferase (female rats, 4 mg/kg i.p.): 24%
SGPT (male rats, 1 mg/kg body weight i.p., for three days): 47.3 u/l
SGPT (male rats, 2 mg/kg body weight i.p., for three days): 50.0 u/l
Increased activity of alanine aminotransferase (male rats, 2 mg/kg i.p.): 12%
SGPT (male rats, 4 mg/kg body weight i.p., for three days): 53.6 u/l
Increased activity of alanine aminotransferase (male rats, 4 mg/kg i.p.): 20%
